Test results taken from patent publication US20200239530A1, “COMPOUNDS AND METHODS OF MODULATING PROTEIN DEGRADATION” (Vividion Therapeutics, Inc., priority 2017, published 2020).

Legend:
[1] = target: T1, HERC1 Probable E3 ubiquitin-protein ligase HERC1 (Homo sapiens, UniProt Q15751); assay: Cysteine liganding, probe competition; type: binding
T1 construct: Cells were resuspended in cold PBS on ice and sonicated with a probe sonicator to achieve lysis; endogenous in cells
Method in brief: (§1)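 Steps: sonicate cells in cold PBS; treat 5 mg/ml lysate with compound (25° C, 1 hr); add desthiobiotin iodoacetamide probe from a 10 mM stock (25° C, 1 hr); precipitate, reduce, alkylate, digest with trypsin; capture labelled peptides on streptavidin for analysis.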

[2] = target: T2, FLYWCH2 FLYWCH family member 2 (Homo sapiens, UniProt Q96CP2); assay: Cysteine liganding, probe competition; type: binding
T2 construct: 200 μL of lysate containing 5 mg/ml proteome was treated with 2 μL of 100× compound stock; endogenous in cells
T2 sequence (Q96CP2 1-140): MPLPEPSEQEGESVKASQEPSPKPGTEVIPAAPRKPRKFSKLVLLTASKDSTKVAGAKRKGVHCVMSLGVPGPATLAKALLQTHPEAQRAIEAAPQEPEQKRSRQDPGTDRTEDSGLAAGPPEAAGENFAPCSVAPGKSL
Method in brief: as §1

T1 sequence (Q15751 whole entry): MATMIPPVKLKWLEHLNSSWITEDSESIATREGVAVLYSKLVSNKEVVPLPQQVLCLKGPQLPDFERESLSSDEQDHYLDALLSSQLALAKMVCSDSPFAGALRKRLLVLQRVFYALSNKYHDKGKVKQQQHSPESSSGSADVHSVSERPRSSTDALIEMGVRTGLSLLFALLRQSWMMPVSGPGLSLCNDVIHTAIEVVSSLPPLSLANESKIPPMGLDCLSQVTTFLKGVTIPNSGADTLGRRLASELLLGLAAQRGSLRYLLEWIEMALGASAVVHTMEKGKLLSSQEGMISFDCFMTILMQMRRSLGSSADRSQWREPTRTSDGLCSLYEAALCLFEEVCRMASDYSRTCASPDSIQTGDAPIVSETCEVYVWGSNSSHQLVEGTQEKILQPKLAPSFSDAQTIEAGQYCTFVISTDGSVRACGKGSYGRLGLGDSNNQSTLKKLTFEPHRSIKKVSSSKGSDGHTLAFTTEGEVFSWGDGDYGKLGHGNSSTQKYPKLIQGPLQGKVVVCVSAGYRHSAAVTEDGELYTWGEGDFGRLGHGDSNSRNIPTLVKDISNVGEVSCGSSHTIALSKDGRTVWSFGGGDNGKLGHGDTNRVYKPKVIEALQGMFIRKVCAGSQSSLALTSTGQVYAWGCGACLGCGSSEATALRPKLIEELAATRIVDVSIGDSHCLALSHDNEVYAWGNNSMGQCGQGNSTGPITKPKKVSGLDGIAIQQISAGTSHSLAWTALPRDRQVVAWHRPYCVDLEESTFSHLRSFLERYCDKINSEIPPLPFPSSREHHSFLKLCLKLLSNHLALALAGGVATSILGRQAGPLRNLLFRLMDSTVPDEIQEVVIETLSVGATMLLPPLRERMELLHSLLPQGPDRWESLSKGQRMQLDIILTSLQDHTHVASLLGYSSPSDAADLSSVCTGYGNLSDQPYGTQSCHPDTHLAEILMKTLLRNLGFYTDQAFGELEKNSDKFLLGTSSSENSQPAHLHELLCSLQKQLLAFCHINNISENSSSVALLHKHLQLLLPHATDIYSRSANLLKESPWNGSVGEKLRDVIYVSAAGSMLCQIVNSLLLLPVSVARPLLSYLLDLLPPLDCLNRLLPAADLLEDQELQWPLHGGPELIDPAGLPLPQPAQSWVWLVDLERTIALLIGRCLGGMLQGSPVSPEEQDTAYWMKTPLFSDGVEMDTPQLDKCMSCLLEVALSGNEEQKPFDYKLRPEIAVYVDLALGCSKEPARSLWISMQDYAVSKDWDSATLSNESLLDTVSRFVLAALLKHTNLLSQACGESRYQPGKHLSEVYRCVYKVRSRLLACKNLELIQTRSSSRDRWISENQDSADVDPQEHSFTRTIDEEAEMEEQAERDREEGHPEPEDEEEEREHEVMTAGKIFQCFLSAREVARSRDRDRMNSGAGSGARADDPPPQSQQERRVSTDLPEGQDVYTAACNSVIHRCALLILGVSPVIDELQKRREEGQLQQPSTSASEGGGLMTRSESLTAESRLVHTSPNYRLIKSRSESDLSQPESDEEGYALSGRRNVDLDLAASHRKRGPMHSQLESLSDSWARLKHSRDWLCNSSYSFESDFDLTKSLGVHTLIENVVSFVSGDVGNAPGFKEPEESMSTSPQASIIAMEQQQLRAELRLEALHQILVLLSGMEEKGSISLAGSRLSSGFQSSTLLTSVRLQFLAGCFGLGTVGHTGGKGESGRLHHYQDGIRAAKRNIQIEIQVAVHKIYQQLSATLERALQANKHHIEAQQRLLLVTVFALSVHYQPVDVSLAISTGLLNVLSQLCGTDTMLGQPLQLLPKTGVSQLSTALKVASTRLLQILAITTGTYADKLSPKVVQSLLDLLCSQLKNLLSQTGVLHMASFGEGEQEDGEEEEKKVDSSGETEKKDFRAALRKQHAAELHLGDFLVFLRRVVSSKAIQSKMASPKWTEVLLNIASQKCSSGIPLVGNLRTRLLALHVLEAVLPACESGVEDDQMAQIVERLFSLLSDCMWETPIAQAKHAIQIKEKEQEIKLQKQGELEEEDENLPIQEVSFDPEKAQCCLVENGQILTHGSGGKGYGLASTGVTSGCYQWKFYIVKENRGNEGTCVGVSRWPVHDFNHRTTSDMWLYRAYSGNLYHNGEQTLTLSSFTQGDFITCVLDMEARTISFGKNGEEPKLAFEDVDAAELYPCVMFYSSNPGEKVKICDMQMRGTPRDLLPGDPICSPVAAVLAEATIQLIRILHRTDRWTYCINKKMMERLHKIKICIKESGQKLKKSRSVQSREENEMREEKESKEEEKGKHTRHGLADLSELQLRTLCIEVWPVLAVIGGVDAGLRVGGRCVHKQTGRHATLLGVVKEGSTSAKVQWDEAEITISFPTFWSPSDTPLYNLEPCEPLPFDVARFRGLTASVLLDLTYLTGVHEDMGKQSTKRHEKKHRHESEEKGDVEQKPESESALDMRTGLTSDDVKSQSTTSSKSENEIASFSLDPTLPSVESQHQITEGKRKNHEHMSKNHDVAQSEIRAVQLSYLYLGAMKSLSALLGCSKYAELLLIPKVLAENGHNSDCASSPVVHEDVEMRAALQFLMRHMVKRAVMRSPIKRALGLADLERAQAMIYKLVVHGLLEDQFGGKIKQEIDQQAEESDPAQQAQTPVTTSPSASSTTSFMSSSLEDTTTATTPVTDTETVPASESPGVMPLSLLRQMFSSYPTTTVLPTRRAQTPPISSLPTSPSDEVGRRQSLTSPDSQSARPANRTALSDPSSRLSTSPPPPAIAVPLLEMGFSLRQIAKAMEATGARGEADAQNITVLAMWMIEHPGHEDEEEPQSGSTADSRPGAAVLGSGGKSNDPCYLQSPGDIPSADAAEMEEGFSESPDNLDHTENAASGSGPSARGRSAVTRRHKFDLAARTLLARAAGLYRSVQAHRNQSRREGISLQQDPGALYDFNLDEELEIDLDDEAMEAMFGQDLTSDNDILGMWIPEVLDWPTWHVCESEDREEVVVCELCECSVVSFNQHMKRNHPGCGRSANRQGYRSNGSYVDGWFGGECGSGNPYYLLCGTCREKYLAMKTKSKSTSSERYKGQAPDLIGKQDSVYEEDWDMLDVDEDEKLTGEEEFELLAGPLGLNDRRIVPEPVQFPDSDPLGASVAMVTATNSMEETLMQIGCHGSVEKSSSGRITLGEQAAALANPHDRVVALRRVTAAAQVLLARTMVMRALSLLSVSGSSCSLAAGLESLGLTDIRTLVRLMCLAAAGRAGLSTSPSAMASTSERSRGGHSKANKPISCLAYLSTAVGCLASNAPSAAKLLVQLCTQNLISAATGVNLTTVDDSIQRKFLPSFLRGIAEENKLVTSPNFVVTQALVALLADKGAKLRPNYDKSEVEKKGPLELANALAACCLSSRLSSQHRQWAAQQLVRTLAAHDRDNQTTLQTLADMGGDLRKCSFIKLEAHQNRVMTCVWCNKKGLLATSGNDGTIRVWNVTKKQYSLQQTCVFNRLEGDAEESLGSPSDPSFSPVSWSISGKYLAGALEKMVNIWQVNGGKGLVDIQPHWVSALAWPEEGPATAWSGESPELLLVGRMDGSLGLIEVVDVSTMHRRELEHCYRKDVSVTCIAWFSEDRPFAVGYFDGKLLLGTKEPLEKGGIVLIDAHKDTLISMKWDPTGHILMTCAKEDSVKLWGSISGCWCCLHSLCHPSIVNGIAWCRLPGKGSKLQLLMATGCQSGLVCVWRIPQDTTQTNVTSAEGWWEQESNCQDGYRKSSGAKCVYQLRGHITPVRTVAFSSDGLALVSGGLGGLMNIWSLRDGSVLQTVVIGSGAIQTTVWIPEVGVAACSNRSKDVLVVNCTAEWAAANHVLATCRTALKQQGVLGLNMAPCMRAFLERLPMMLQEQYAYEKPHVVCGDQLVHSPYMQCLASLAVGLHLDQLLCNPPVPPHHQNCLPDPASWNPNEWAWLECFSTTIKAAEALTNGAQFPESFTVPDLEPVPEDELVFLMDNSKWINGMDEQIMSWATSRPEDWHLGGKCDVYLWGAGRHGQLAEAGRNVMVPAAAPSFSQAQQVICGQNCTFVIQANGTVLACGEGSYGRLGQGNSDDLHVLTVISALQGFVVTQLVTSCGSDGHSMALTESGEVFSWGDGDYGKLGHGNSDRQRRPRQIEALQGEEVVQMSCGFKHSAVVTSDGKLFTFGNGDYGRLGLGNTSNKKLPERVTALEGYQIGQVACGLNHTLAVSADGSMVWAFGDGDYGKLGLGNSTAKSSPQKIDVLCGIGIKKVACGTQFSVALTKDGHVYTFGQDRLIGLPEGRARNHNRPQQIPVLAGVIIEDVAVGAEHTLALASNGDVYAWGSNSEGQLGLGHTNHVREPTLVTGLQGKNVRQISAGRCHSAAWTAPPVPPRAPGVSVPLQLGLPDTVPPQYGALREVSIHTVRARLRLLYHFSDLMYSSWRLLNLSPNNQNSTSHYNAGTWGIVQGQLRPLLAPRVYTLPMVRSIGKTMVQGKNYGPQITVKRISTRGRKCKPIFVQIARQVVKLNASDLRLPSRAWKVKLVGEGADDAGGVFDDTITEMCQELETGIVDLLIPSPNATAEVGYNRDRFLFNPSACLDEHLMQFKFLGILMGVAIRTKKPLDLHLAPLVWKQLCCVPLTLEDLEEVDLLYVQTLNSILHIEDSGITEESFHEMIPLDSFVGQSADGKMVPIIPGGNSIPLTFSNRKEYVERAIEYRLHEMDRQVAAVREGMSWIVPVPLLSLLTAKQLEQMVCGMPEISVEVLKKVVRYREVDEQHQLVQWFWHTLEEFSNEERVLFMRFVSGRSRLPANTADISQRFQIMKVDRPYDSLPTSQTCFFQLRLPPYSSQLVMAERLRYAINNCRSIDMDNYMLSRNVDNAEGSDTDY

Row | SMILES | Liganded ([1]; HERC1 Res# 56, uniprot Q15751) | Liganded ([1]; HERC1 Res# 1941, uniprot Q15751) | Liganded ([2]; FLYWCH2 Res# 64, uniprot Q96CP2) | 500 Max ([1]; uniprot Q15751) | 500 ave ([1]; uniprot Q15751) | 100 Max ([2]; uniprot Q96CP2) | 100 ave ([2]; uniprot Q96CP2) | 500 Max ([2]; uniprot Q96CP2) | 500 ave ([2]; uniprot Q96CP2)
1 | COc1ccc2c(c1)CCCN2C(=O)CCl [KB02] | YES | YES | YES |  |  |  |  |  | 
2 | O=C(CCl)Nc1cc(C(F)(F)F)cc(C(F)(F)F)c1 [KBO3] |  |  |  | 68.4 | 58.0 | 12.97 | 2.25 | 41.66 | 41.635
